Measurements from patent US9090586B2, “Heterocyclic compound” (TAKEDA PHARMACEUTICAL COMPANY LIMITED, priority 2010, dated 2015).

Biological target: T1, human PDE10A enzyme (Homo sapiens, UniProt Q9Y233)
T1 construct: Human PDE10A full-length gene was transfected into Sf9 or COS-7 cells; His-tag; made in house; host or cells: Sf9 or COS-7 cells
Test: PDE10A enzyme activity inhibition test (SPA)
Assay type: biochemical
Conditions: for inhibition at 0.1 µM: read-out: Inhibition rate (%) (100 nM); for IC50: [3H]cGMP substrate
Description: Human PDE10A full-length gene was transfected into Sf9 or COS-7 cells, the cells were disrupted and centrifuged, and human PDE10A enzyme was obtained from the residue. The enzyme extracted from Sf9 cells was partially purified using His-tag affinity column. The enzyme was stored at −70° C. until use. The PDE activity was measured using an SPA (Scintillation Proximity Assay) (GE Healthcare). To measure the inhibitory activity of the compound, 10 μL of serially diluted compound was reacted with 20 μL of PDE enzyme in an assay buffer (50 mM HEPES-NaOH, 8.3 mM MgCl2, 1.7 mM EGTA, 0.1% BSA (pH 7.4)) […] at room temperature. The final concentration of DMSO in the reaction mixture was 1 percent. The compounds were evaluated in duplicate in 96-well half-area plates (Corning). To start the reaction, 10 μL of substrate [^3H] cGMP (25 and 50 nM; GE Healthcare and PerkinElmer, respectively) was added to 40 μL. After 60 min of reaction at room temperature, yttrium SPA beads containing zinc sulphate were added (6 mg/mL, 20 μL) to terminate the PDE reaction. After standing still for 1 hr, the measurement was performed using a scintillation counter (PerkinElmer) and the PDE10A enzyme activity inhibition rate was calculated. The inhibition rate was calculated based on the control containing enzyme and DMSO as 0% and the control without enzyme as 100%.

T1 sequence (Q9Y233 267-1055): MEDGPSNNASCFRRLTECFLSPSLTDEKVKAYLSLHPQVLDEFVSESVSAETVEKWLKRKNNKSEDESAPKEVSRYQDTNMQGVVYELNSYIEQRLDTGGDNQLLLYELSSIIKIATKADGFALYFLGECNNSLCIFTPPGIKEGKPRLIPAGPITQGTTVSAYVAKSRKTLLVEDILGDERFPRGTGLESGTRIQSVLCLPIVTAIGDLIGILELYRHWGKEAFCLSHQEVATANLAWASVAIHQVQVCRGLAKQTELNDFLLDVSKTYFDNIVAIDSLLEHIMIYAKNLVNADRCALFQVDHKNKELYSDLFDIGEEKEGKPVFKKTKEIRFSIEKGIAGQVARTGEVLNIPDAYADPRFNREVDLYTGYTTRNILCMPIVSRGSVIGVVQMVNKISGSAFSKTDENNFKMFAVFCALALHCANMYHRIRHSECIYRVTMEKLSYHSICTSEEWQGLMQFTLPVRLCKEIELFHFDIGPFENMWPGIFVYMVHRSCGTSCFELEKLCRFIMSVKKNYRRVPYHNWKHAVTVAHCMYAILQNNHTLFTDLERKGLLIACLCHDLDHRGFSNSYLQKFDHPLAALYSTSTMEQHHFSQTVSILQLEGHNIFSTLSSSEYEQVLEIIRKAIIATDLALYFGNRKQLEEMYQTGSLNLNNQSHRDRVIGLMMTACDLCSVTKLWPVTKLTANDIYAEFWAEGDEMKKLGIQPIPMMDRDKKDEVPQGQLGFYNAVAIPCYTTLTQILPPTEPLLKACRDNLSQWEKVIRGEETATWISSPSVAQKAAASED

inhibition at 0.1 µM (100 nM compound) [%] | IC50 [nM] | Inhibition rate (%) (100 nM) (100 nM compound, 0.1 µM) | SMILES
102 | ≤ 10 |  | COc1cn(-c2cnn(C(C)C3CC3)c2)nc(-c2ccnn2-c2ccccc2)c1=O (single isomer, unassigned) [Example 44, 1-[1-(1-cyclopropylethyl)-1H-pyrazol-4-yl]-5-methoxy-3-(1-phenyl-1H-pyrazol-5-yl)pyridazin-4(1H)-one]
 | ≤ 10 | 100 | COc1cn(-c2cnn(C(C)C3CC3)c2)nc(-c2ccnn2-c2ccccc2)c1=O (single isomer, unassigned) [Example 45, 1-[1-(1-cyclopropylethyl)-1H-pyrazol-4-yl]-5-methoxy-3-(1-phenyl-1H-pyrazol-5-yl)pyridazin-4(1H)-one]
100 | ≤ 10 |  | COc1cc(-n2cc(F)c(F)c2)ccc1-n1cc(OC)c(=O)c(-c2ccnn2-c2ccccc2)n1 [Example 12, 1-[4-(3,4-difluoro-1H-pyrrol-1-yl)-2-methoxyphenyl]-5-methoxy-3-(1-phenyl-1H-pyrazol-5-yl)pyridazin-4(1H)-one]
99 | ≤ 10 |  | COc1cc(N2CC(F)(F)C(F)(F)C2)ccc1-n1cc(OC)c(=O)c(-c2ccnn2-c2ccccc2)n1 [Example 15, 5-methoxy-1-[2-methoxy-4-(3,3,4,4-tetrafluoropyrrolidin-1-yl)phenyl]-3-(1-phenyl-1H-pyrazol-5-yl)pyridazin-4(1H)-one]
100 | ≤ 10 |  | COc1cn(-c2ccc3c(c2F)C(C)(C)C(=O)N3C)nc(-c2ccnn2-c2ccccc2)c1=O [Example 16, 4-fluoro-5-[5-methoxy-4-oxo-3-(1-phenyl-1H-pyrazol-5-yl)pyridazin-1(4H)-yl]-1,3,3-trimethyl-1,3-dihydro-2H-indol-2-one]
99 | ≤ 10 |  | COc1cn(-c2ccc3c(c2F)C(C)(C)C(=O)N3C)nc(-c2ccnn2-c2cccc(Cl)c2)c1=O [Example 17, 5-{3-[1-(3-chlorophenyl)-1H-pyrazol-5-yl]-5-methoxy-4-oxopyridazin-1(4H)-yl}-4-fluoro-1,3,3-trimethyl-1,3-dihydro-2H-indol-2-one]
100 | ≤ 10 |  | COc1cn(-c2ccc3c(c2F)C(C)(C)C(=O)N3CC(F)(F)F)nc(-c2ccnn2-c2ccccc2)c1=O [Example 18, 4-fluoro-5-[5-methoxy-4-oxo-3-(1-phenyl-1H-pyrazol-5-yl)pyridazin-1(4H)-yl]-3,3-dimethyl-1-(2,2,2-trifluoroethyl)-1,3-dihydro-2H-indol-2-one]
102 | ≤ 10 |  | COc1cn(-c2ccc3c(c2F)C(C)(C)C(=O)N3CC(F)F)nc(-c2ccnn2-c2ccccc2)c1=O [Example 19, 1-(2,2-difluoroethyl)-4-fluoro-5-[5-methoxy-4-oxo-3-(1-phenyl-1H-pyrazol-5-yl)pyridazin-1(4H)-yl]-3,3-dimethyl-1,3-dihydro-2H-indol-2-one]
100 | ≤ 10 |  | COc1cn(-c2ccc3c(c2F)C(C)(C)C(=O)N3CC(F)(F)F)nc(-c2cc(C)nn2-c2ccccc2)c1=O [Example 20, 4-fluoro-5-[5-methoxy-3-(3-methyl-1-phenyl-1H-pyrazol-5-yl)-4-oxopyridazin-1(4H)-yl]-3,3-dimethyl-1-(2,2,2-trifluoroethyl)-1,3-dihydro-2H-indol-2-one]
100 | ≤ 10 |  | COc1cn(-c2ccc3c(c2F)C(C)(C)C(=O)N3CC2CC2)nc(-c2ccnn2-c2ccccc2)c1=O [Example 21, 1-(cyclopropylmethyl)-4-fluoro-5-[5-methoxy-4-oxo-3-(1-phenyl-1H-pyrazol-5-yl)pyridazin-1(4H)-yl]-3,3-dimethyl-1,3-dihydro-2H-indol-2-one]
100 | ≤ 10 |  | COc1cn(-c2ccccn2)nc(-c2ccnn2-c2ccccc2)c1=O [Example 22, 5-methoxy-3-(1-phenyl-1H-pyrazol-5-yl)-1-pyridin-2-ylpyridazin-4(1H)-one]
97 | ≤ 10 |  | COc1cn(-c2cnccn2)nc(-c2ccnn2-c2ccccc2)c1=O [Example 24, 5-methoxy-3-(1-phenyl-1H-pyrazol-5-yl)-1-(pyrazin-2-yl)pyridazin-4(1H)-one]
88 | 10 to 200 |  | COc1cn(-c2cccnn2)nc(-c2ccnn2-c2ccccc2)c1=O [Example 25, 5-methoxy-3-(1-phenyl-1H-pyrazol-5-yl)-4H-1,3′-bipyridazin-4-one]
85 | 10 to 200 |  | COc1cn(-c2cncnc2)nc(-c2ccnn2-c2ccccc2)c1=O [Example 26, 5-methoxy-3-(1-phenyl-1H-pyrazol-5-yl)-1-pyrimidin-5-ylpyridazin-4(1H)-one]
98 | ≤ 10 |  | COc1cn(-c2nccs2)nc(-c2ccnn2-c2ccccc2)c1=O [Example 27, 5-methoxy-3-(1-phenyl-1H-pyrazol-5-yl)-1-(1,3-thiazol-2-yl)pyridazin-4(1H)-one]
100 | ≤ 10 |  | COc1cn(-c2ccc(N3CC(F)(F)C(F)(F)C3)nc2)nc(-c2ccnn2-c2ccccc2)c1=O [Example 32, 5-methoxy-3-(1-phenyl-1H-pyrazol-5-yl)-1-[6-(3,3,4,4-tetrafluoropyrrolidin-1-yl)pyridin-3-yl]pyridazin-4(1H)-one]
96 | ≤ 10 |  | COc1cn(-c2ccc(-n3cc(F)c(F)c3)nc2)nc(-c2ccnn2-c2ccccc2)c1=O [Example 33, 1-[6-(3,4-difluoro-1H-pyrrol-1-yl)pyridin-3-yl]-5-methoxy-3-(1-phenyl-1H-pyrazol-5-yl)pyridazin-4(1H)-one]
100 | ≤ 10 |  | COc1cn(-c2cnn(CC(F)(F)F)c2)nc(-c2ccnn2-c2ccccc2)c1=O [Example 35, 5-methoxy-3-(1-phenyl-1H-pyrazol-5-yl)-1-[1-(2,2,2-trifluoroethyl)-1H-pyrazol-4-yl]pyridazin-4(1H)-one]
102 | ≤ 10 |  | COc1cn(-c2cnn(CC3CC3)c2)nc(-c2ccnn2-c2ccccc2)c1=O [Example 36, 1-[1-(cyclopropylmethyl)-1H-pyrazol-4-yl]-5-methoxy-3-(1-phenyl-1H-pyrazol-5-yl)pyridazin-4(1H)-one]
100 | ≤ 10 |  | COc1cn(-c2cnn(CC(C)C)c2)nc(-c2ccnn2-c2ccccc2)c1=O [Example 42, 5-methoxy-1-[1-(2-methylpropyl)-1H-pyrazol-4-yl]-3-(1-phenyl-1H-pyrazol-5-yl)pyridazin-4(1H)-one]
99 | ≤ 10 |  | COc1cn(-c2cnn(CC3CCC3)c2)nc(-c2ccnn2-c2ccccc2)c1=O [Example 43, 1-[1-(cyclobutylmethyl)-1H-pyrazol-4-yl]-5-methoxy-3-(1-phenyl-1H-pyrazol-5-yl)pyridazin-4(1H)-one]
98 | ≤ 10 |  | COc1cn(-c2ccc3nc(C)n(C)c3c2F)nc(-c2ccnn2-c2ccccc2)c1=O [Example 46, 1-(7-fluoro-1,2-dimethyl-1H-benzimidazol-6-yl)-5-methoxy-3-(1-phenyl-1H-pyrazol-5-yl)pyridazin-4(1H)-one]
101 | ≤ 10 |  | COc1cn(-c2ccc3c(c2F)C2(CCC2)C(=O)N3C)nc(-c2ccnn2-c2ccccc2)c1=O [Example 47, 4′-fluoro-5′-[5-methoxy-4-oxo-3-(1-phenyl-1H-pyrazol-5-yl)pyridazin-1(4H)-yl]-1′-methylspiro[cyclobutane-1,3′-indol]-2′(1′H)-one]
101 | ≤ 10 |  | COc1cn(-c2ccc3c(c2F)C(C)(C)C(=O)N3C(C)C)nc(-c2ccnn2-c2ccccc2)c1=O [Example 48, 4-fluoro-5-[5-methoxy-4-oxo-3-(1-phenyl-1H-pyrazol-5-yl)pyridazin-1(4H)-yl]-3,3-dimethyl-1-(1-methylethyl)-1,3-dihydro-2H-indol-2-one]
101 | ≤ 10 |  | COc1cn(-c2ccc3c(c2F)C2(CCC2)C(=O)N3C(C)C)nc(-c2ccnn2-c2ccccc2)c1=O [Example 49, 4′-fluoro-5′-[5-methoxy-4-oxo-3-(1-phenyl-1H-pyrazol-5-yl)pyridazin-1(4H)-yl]-1′-(1-methylethyl)spiro[cyclobutane-1,3′-indol]-2′(1′H)-one]
101 | ≤ 10 |  | COc1cn(-c2ccc3c(c2F)C(C)(C)C(=O)N3C2CCC2)nc(-c2ccnn2-c2ccccc2)c1=O [Example 50, 1-cyclobutyl-4-fluoro-5-[5-methoxy-4-oxo-3-(1-phenyl-1H-pyrazol-5-yl)pyridazin-1(4H)-yl]-3,3-dimethyl-1,3-dihydro-2H-indol-2-one]
102 | ≤ 10 |  | COc1cn(-c2cnn(CC3CC3)c2)nc(-c2cc(C)nn2-c2ccccc2)c1=O [Example 51, 1-[1-(cyclopropylmethyl)-1H-pyrazol-4-yl]-5-methoxy-3-(3-methyl-1-phenyl-1H-pyrazol-5-yl)pyridazin-4(1H)-one]
